Results reported in ChEMBL document CHEMBL1134487, “Design, synthesis, and biological evaluation of analogues of the antitumor agent, 2-(4-[(7-chloro-2-quinoxalinyl)oxy]phenoxy)propionic acid (XK469)” (2001).

Experiments:
[1] = tested on: Mus musculus; assay: In vivo activity tested against C3H mice bearing mammary adenocarcinoma -17/ADR tumor measured as activity rating at 620 mg/kg (po); format: functional
[2] = tested on: Mus musculus; assay: Cytotoxicity against iv transplanted L1210 tumors of mouse origin, activity expressed as %body wt. loss at the dose of 300 mg/kg, iv; format: functional
[3] = tested on: Mus musculus; assay: Cytotoxicity against sc transplanted Panc-03 tumors of mouse origin, activity expressed as cures at the dose of 328 mg/kg, po; 4/6 cures; format: functional
[4] = tested on: Mus musculus; assay: In vivo activity tested against C3H mice bearing panc-03 murine tumor measured as activity rating at 328 mg/kg (po); format: functional
[5] = tested on: Mus musculus; assay: Cytotoxicity against sc transplanted Mam-16/C/Taxol tumors of mouse origin, activity expressed as cures at the dose of 480 mg/kg, iv; 0/5 cures; format: functional
[6] = tested on: Mus musculus; assay: Cytotoxicity against iv transplanted L1210 tumors of mouse origin, activity expressed as %ILS at the dose of 300 mg/kg, iv; format: functional
[7] = tested on: Mus musculus; assay: Cytotoxicity against sc transplanted Mam-16/C/Adr tumors of mouse origin, activity expressed as […] at the dose of 400 mg/kg, iv; 0/5 cures; format: functional
[8] = tested on: Mus musculus; assay: In vivo activity tested against C3H mice bearing panc-03 murine tumor measured as% treated/control calculated at 328 mg/kg (po); format: functional
[9] = tested on: Mus musculus; assay: Cytotoxicity against sc transplanted DMS273 sm cell tumors of mouse and human origin, activity expressed as T/C(%) at the dose of 175 mg/kg, iv; format: functional
[10] = tested on: Mus musculus; assay: Cytotoxicity against iv transplanted AML1498 tumors of mouse origin, activity expressed as %ILS at the dose of 165 mg/kg, iv; format: functional
[11] = tested on: Mus musculus; assay: In vivo activity tested against C3H mice bearing panc-03 murine tumor measured as body weight loss at 328 mg/kg (po); format: functional
[12] = tested on: Mus musculus; assay: Cytotoxicity against sc transplanted L1210 tumors of mouse origin, activity expressed as %body wt. loss at the dose of 332 mg/kg, iv; format: functional
[13] = tested on: Mus musculus; assay: Cytotoxicity against sc transplanted Mam-17/Adr tumors of mouse origin, activity expressed as cures at the dose of 620 mg/kg, iv; 0/5 cures; format: functional
[14] = tested on: Mus musculus; assay: Cytotoxicity against transplanted Panc-02 tumors of mouse origin, activity expressed as cures at the dose of 600 mg/kg, iv; 0/6 cures; format: functional
[15] = tested on: Mus musculus; assay: Cytotoxicity against sc transplanted B-16 melanoma tumors of mouse origin, activity expressed as log10 Kill at the dose of 300 mg/kg, iv; format: functional, organism-based; design: dose 300 mg/kg
[16] = tested on: Mus musculus; assay: Cytotoxicity against sc transplanted Mam-16/C tumors of mouse origin, activity expressed as %body wt loss at the dose of 525 mg/kg, iv; format: functional
[17] = tested on: Mus musculus; assay: Cytotoxicity against sc transplanted Mam-17/0 tumors of mouse origin, activity expressed as log10 Kill at the dose of 620 mg/kg, iv; format: functional, organism-based; design: dose 620 mg/kg
[18] = tested on: Mus musculus; assay: Cytotoxicity against sc transplanted L1210 tumors of mouse origin, activity expressed as log10 Kill at the dose of 332 mg/kg, iv; format: functional, organism-based; design: dose 332 mg/kg
[19] = tested on: Mus musculus; assay: Cytotoxicity against sc transplanted Mam-16/C tumors of mouse origin, activity expressed as log kill at the dose of 525 mg/kg, iv; format: functional, organism-based; design: dose 525 mg/kg
[20] = tested on: Mus musculus; assay: Cytotoxicity against sc transplanted Mam-16/C/Adr tumors of mouse origin, activity expressed as T/C(%) at the dose of 400 mg/kg, iv; format: functional
[21] = tested on: Mus musculus; assay: Cytotoxicity against sc transplanted L1210 tumors of mouse origin, activity expressed as T/C(%) at the dose of 332 mg/kg, iv; format: functional
[22] = tested on: Mus musculus; assay: Cytotoxicity against sc transplanted colon-26 tumors of mouse origin, activity expressed as cures at the dose of 300 mg/kg, iv; 0/5 cures; format: functional
[23] = tested on: Mus musculus; assay: Cytotoxicity against sc transplanted colon-26 tumors of mouse origin, activity expressed as %body wt. loss at the dose of 300 mg/kg, iv; format: functional
[24] = tested on: Mus musculus; assay: Cytotoxicity against sc transplanted Squam-lung-LC12 tumors of mouse origin, activity expressed as cures at the dose of 400 mg/kg, iv; 5/5 cures; format: functional
[25] = tested on: Mus musculus; assay: Cytotoxicity against sc transplanted colon-51 tumors of mouse origin, activity expressed as log10 Kill at the dose of 980 mg/kg, po; format: functional, organism-based; design: dose 980 mg/kg
[26] = tested on: Mus musculus; assay: Cytotoxicity against sc transplanted B-16 melanoma tumors of mouse origin, activity expressed as T/C(%) at the dose of 300 mg/kg, iv; format: functional
[27] = tested on: Mus musculus; assay: Cytotoxicity against sc transplanted Mam-17/0 tumors of mouse origin, activity expressed as %body wt. loss at the dose of 620 mg/kg, iv; format: functional
[28] = tested on: Mus musculus; assay: Cytotoxicity against sc transplanted Panc-02 tumors of mouse origin, activity expressed as %body wt. loss at the dose of 600 mg/kg, iv; format: functional
[29] = tested on: Mus musculus; assay: Cytotoxicity against sc transplanted Mam-17/Adr tumors of mouse origin, activity expressed as T/C(%) at the dose of 620 mg/kg, iv; format: functional
[30] = tested on: Mus musculus; assay: Cytotoxicity against sc transplanted Mam-16/C tumors of mouse origin, activity expressed as cures at the dose of 525 mg/kg, iv; 1/5 cures; format: functional

## CC(Oc1ccc(Oc2cnc3ccc(Cl)cc3n2)cc1)C(=O)O (stereo not given)
[1]
  Activity rating: >2.8
[2]
  Body weight loss: -2%
[3]
  Cures: 4
[4]
  Activity rating: >2.8
[5]
  Cures: 0
[6]
  ILS at 300 mg/kg: 160%
[7]
  Cures: 0
[8]
  T/C: 0%
[9]
  T/C: 14%
[10]
  ILS at 165 mg/kg: 30%
[11]
  Body weight loss: -4%
[12]
  Body weight loss: -16%
[13]
  Cures: 0
[14]
  Cures: 0
[15]
  Log kill: 2.6
[16]
  Body weight loss: -9%
[17]
  Log kill: 3.4
[18]
  Log kill: 0.8
[19]
  Log kill: 5.2
[20]
  T/C: 0%
[21]
  T/C: 30%
[22]
  Cures: 0
[23]
  Body weight loss: -12%
[24]
  Cures: 5
[25]
  Log kill: 2.7
[26]
  T/C: 4%
[27]
  Body weight loss: -12%
[28]
  Body weight loss: -3%
[29]
  T/C: 2%
[30]
  Cures: 1
